Article PMC10281575, “PfCRT mutations conferring piperaquine resistance in falciparum malaria shape the kinetics of quinoline drug binding and transport” (PLOS Pathogens, 2023)
Positions count from the first letter of the chain named. Where “and” joins values, the source holds several entries; their conditions need not be identical. Identical values can stand only once. Like-named read-outs stand apart in the source and are kept apart here.

Assays:
[1] = target: T1, PfCRT^Dd2 (Plasmodium falciparum, UniProt Q8IBZ9, A220S/I356T/K76T/M74I/N326S/N75E/Q271E/R371I); conditions: read-out: apparent Km for CQ on PfCRT^Dd2, cited from earlier work
T1 sequence (Q8IBZ9 1-424 M74I/N75E/K76T/A220S/Q271E/N326S/I356T/R371I): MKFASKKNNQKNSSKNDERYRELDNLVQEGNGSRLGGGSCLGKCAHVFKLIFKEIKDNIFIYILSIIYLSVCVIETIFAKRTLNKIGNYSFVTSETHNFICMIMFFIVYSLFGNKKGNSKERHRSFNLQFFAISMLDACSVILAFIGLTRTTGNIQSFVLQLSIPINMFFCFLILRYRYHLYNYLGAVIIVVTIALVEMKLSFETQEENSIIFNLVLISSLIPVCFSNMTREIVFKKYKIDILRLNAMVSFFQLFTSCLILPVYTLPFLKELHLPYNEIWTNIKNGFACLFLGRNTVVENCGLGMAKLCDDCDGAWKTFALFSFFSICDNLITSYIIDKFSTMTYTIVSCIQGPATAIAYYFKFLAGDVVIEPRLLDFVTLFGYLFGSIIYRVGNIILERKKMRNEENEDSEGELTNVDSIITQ

[2] = target: T2, PfCRT^Dd2_V141A (Plasmodium falciparum, UniProt Q8IBZ9, A220S/I356T/K76T/M74I/N326S/N75E/Q271E/R371I/V141A); assay: PfCRT-mediated CQ transport in oocytes expressing PfCRT^Dd2_V141A; type: cell-based; conditions: S6 Fig; per biological replicate
T2 construct: expressed in transfected cells; host or cells: Xenopus laevis oocytes
T2 sequence (Q8IBZ9 1-424 M74I/N75E/K76T/V141A/A220S/Q271E/N326S/I356T/R371I): T1 sequence (Q8IBZ9 1-424 M74I/N75E/K76T/A220S/Q271E/N326S/I356T/R371I) with V141A
Excerpt: (§1) The docking results reflect the differences in the experimentally measured affinities of the two compounds for PfCRT^Dd2, with CQ having less favorable docking scores compared to PPQ (S1 Table). […] In this pose, CQ forms polar contacts via the two positively charged nitrogens: the nitrogen of the diethylamino tail makes a salt bridge with E75 on TM1 and the nitrogen of the 4-amminoquinoline ring makes a hydrogen bond with S257 on TM7. Hydrophobic contacts are established by the quinoline ring with I260, V141, and F145.
(§2) Drug transport assays were performed as previously described. Briefly, measurements of radiolabeled drug uptake were made over 1 h, unless otherwise specified. […] Where specified, one or more unlabeled drugs were also present at the indicated concentrations. […] The radioactivity in the sample was measured using a liquid scintillation analyser Tri-Carb 4910 TR (PerkinElmer). Water-injected oocytes were analyzed in parallel as a negative control. The buffer from each condition was measured in duplicate in parallel to each experiment to transform counts per minute into pmol of drug. Drug uptake attributable to PfCRT was determined by subtracting the background uptake from water-injected oocytes from that of PfCRT-expressing oocytes. […]

[3] = target: T3, PfCRT^Dd2_S257A (Plasmodium falciparum, UniProt Q8IBZ9, A220S/I356T/K76T/M74I/N326S/N75E/Q271E/R371I/S257A); assay: PfCRT-mediated CQ transport in oocytes expressing PfCRT^Dd2_S257A; type: cell-based; conditions: S6 Fig; per biological replicate
T3 construct: expressed in transfected cells; host or cells: Xenopus laevis oocytes
T3 sequence (Q8IBZ9 1-424 M74I/N75E/K76T/A220S/S257A/Q271E/N326S/I356T/R371I): T1 sequence (Q8IBZ9 1-424 M74I/N75E/K76T/A220S/Q271E/N326S/I356T/R371I) with S257A
Excerpt: as §1, §2

[4] = test system: Dd2^3D7crt parasites; parameters: method as in Okombo et al. (2022); conditions: ref Okombo et al. (2022); cited from earlier work

In the case of `CCN(CC)CCCC(C)Nc1ccnc2cc(Cl)ccc12` (centres unmarked) [CQ, chloroquine], the Km ([1]; ref Bellanca et al., 2014) is listed as 250 ± 30 µM, the Km ([1]; ref Martin et al. 2009) is listed as 245 ± 3 µM and the “PfCRTDd2_V141A-mediated CQ transport” value [2] is listed as 1.080 pmol oocyte-1 h-1 and 0.460 pmol oocyte-1 h-1 and 1.360 pmol oocyte-1 h-1. The “PfCRTDd2_S257A-mediated CQ transport” value [3] was 1.610 pmol oocyte-1 h-1 and 1.360 pmol oocyte-1 h-1 and 1.980 pmol oocyte-1 h-1.

In the case of `Clc1ccc2c(N3CCN(CCCN4CCN(c5ccnc6cc(Cl)ccc56)CC4)CC3)ccnc2c1` [PPQ, piperaquine], the drug accumulation ratio [4] is given as 2000 fold.
